Source: US12350269B2 (Alexion Pharmaceuticals, Inc., priority 2015, dated 2025)

What was measured:
ARK5 = biological target: T1, ARK5 (Homo sapiens, UniProt O60285); experiment: Purified kinase assay (Millipore); format: biochemical; conditions: 300 nM ATP
T1 construct: purchased Millipore
Protocol: (§1) Purified Kinase Assays: Performed at Millipore at a fixed concentration of 300 nM ATP. A 10-point concentration curve was used to determine IC (Inhibitory Concentration).

CHK1 = biological target: T2, CHK1 (Homo sapiens, UniProt O14757); experiment: Purified kinase assay (Millipore); format: biochemical; conditions: 300 nM ATP
T2 construct: purchased Millipore
Protocol: as §1

FLT3 = biological target: T3, FLT3 (Homo sapiens, UniProt P36888); experiment: Purified kinase assay (Millipore); format: biochemical; conditions: 300 nM ATP
T3 construct: purchased Millipore
Protocol: as §1

FLT4 = biological target: T4, FLT4 (Homo sapiens, UniProt P35916); experiment: Purified kinase assay (Millipore); format: biochemical; conditions: 300 nM ATP
T4 construct: purchased Millipore
Protocol: as §1

FMS = biological target: T5, FMS (Homo sapiens, UniProt P07333); experiment: Purified kinase assay (Millipore); format: biochemical; conditions: 300 nM ATP
T5 construct: purchased Millipore
Protocol: as §1

GCK = biological target: T6, GCK (Homo sapiens, UniProt Q12851); experiment: Purified kinase assay (Millipore); format: biochemical; conditions: 300 nM ATP
T6 construct: purchased Millipore
Protocol: as §1

ITK = biological target: T7, ITK (Homo sapiens, UniProt Q08881); experiment: Purified kinase assay (Millipore); format: biochemical; conditions: 300 nM ATP
T7 construct: purchased Millipore
Protocol: as §1

MARK1 = biological target: T8, MARK1 (Homo sapiens, UniProt Q9P0L2); experiment: Purified kinase assay (Millipore); format: biochemical; conditions: 300 nM ATP
T8 construct: purchased Millipore
Protocol: as §1

MLK1 = biological target: T9, MLK1 (Homo sapiens, UniProt P80192); experiment: Purified kinase assay (Millipore); format: biochemical; conditions: 300 nM ATP
T9 construct: purchased Millipore
Protocol: as §1

MST1 = biological target: T10, MST1 (Homo sapiens, UniProt Q13043); experiment: Purified kinase assay (Millipore); format: biochemical; conditions: 300 nM ATP
T10 construct: purchased Millipore
Protocol: as §1

MST2 = biological target: T11, MST2 (Homo sapiens, UniProt Q13188); experiment: Purified kinase assay (Millipore); format: biochemical; conditions: 300 nM ATP
T11 construct: purchased Millipore
Protocol: as §1

PAR1B-a = biological target: T12, PAR1B-a (Homo sapiens, UniProt Q7KZI7); experiment: Purified kinase assay (Millipore); format: biochemical; conditions: 300 nM ATP
T12 construct: purchased Millipore
Protocol: as §1

RET = biological target: T13, RET (Homo sapiens, UniProt P07949); experiment: Purified kinase assay (Millipore); format: biochemical; conditions: 300 nM ATP
T13 construct: purchased Millipore
Protocol: as §1

RSK2 = biological target: T14, RSK2 (Homo sapiens, UniProt P51812); experiment: Purified kinase assay (Millipore); format: biochemical; conditions: 300 nM ATP
T14 construct: purchased Millipore
Protocol: as §1

RSK4 = biological target: T15, RSK4 (Homo sapiens, UniProt Q9UK32); experiment: Purified kinase assay (Millipore); format: biochemical; conditions: 300 nM ATP
T15 construct: purchased Millipore
Protocol: as §1

TYK2 = biological target: T16, TYK2 (Homo sapiens, UniProt P29597); experiment: Purified kinase assay (Millipore); format: biochemical; conditions: 300 nM ATP
T16 construct: purchased Millipore
Protocol: as §1

JAK1 = biological target: T17, JAK1 (Homo sapiens, UniProt P23458); experiment: Purified kinase assay (Millipore); format: biochemical; conditions: 300 nM ATP
T17 construct: purchased Millipore

JAK1/3 = experiment: Healthy normal human whole blood assay: B-cell, IL4 stimulation, pSTAT6 Y641 readout; format: cell-based
Zap70 = experiment: Healthy normal human whole blood assay: T-cell, TCR stimulation, pERK Y204 readout; format: cell-based
PKC = experiment: Healthy normal human whole blood assay: T-cell, PMA stimulation, pERK Y204 readout; format: cell-based
JAK1/TYK2 = experiment: Healthy normal human whole blood assay: Monocytes, IL6 stimulation, pSTAT3 Y705 readout; format: cell-based; conditions: Monocyte
IL4 signaling = experiment: Phase 1 study: whole blood PD, IL4 signaling; format: in vivo; conditions: Homo sapiens; 40 mg/day; read-out: % Inh. IL4 (Cmin-Cmax) Extrapolated from PK/PD fit of all data
Protocol: Human Whole Blood Assays: Inhibition of SYK- and JAK-dependent and independent signaling was determined by stimulating human whole blood with various agonists against BCR and cytokine receptors. 100 μL aliquots of heparinized healthy human whole blood was stimulated as previously described (Coffey et al, J. of Pharm. and Experimental Therapeutics, 351:538-548, 2014), using an 8-point concentration curve to determine IC50's. Signaling and activation responses were determined by Fluorescence-activated cell sorting (“FACS”). For the clinical trial, whole blood samples were collected prior to and after dosing. Percent inhibition was calculated by normalizing to the pre-dose stimulation response.
Pharmacokinetics (“PK”), pharmacodynamics (“PD”), and safety were monitored. Response was assessed by standard criteria. The level of inhibition of SYK and JAK was determined using a variety of whole blood assays measuring signaling via receptors for the B-cell antigen, IL2, IL4, IL6, and GM-CSF. Serum markers of tumor burden, including CCL3, CCL4, and other markers of inflammation (β2M and CRP), were also being measured.

[1] = Phase 1 study: safety and tolerability; format: in vivo, human; conditions: for tolerability: patients with lymphoid malignancies

T5 sequence (P07333 20-972): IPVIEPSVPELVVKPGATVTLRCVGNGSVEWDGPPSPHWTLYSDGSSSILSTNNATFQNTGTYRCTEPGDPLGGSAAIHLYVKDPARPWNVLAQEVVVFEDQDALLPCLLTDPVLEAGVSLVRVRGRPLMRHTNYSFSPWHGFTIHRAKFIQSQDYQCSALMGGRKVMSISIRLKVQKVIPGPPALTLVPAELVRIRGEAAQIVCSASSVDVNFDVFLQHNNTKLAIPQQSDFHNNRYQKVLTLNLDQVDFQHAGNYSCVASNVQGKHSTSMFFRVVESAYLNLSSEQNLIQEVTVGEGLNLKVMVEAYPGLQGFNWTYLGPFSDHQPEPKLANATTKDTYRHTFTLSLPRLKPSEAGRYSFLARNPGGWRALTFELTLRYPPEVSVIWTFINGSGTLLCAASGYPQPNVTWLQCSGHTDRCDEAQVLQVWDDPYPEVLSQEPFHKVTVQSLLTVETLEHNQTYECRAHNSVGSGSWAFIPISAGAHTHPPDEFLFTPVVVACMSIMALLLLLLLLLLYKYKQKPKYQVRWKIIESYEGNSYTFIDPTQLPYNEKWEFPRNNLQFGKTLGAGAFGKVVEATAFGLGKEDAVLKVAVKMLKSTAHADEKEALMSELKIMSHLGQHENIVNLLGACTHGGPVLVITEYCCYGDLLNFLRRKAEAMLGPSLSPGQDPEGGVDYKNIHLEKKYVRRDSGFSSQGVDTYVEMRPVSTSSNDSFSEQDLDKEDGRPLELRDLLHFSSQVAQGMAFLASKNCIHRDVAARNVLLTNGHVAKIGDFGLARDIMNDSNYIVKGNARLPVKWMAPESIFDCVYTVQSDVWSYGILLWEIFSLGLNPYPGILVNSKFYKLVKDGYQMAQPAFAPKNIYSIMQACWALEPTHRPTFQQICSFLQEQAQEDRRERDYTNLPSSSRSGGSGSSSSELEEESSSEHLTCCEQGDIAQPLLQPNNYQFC
T9 sequence (P80192 whole entry): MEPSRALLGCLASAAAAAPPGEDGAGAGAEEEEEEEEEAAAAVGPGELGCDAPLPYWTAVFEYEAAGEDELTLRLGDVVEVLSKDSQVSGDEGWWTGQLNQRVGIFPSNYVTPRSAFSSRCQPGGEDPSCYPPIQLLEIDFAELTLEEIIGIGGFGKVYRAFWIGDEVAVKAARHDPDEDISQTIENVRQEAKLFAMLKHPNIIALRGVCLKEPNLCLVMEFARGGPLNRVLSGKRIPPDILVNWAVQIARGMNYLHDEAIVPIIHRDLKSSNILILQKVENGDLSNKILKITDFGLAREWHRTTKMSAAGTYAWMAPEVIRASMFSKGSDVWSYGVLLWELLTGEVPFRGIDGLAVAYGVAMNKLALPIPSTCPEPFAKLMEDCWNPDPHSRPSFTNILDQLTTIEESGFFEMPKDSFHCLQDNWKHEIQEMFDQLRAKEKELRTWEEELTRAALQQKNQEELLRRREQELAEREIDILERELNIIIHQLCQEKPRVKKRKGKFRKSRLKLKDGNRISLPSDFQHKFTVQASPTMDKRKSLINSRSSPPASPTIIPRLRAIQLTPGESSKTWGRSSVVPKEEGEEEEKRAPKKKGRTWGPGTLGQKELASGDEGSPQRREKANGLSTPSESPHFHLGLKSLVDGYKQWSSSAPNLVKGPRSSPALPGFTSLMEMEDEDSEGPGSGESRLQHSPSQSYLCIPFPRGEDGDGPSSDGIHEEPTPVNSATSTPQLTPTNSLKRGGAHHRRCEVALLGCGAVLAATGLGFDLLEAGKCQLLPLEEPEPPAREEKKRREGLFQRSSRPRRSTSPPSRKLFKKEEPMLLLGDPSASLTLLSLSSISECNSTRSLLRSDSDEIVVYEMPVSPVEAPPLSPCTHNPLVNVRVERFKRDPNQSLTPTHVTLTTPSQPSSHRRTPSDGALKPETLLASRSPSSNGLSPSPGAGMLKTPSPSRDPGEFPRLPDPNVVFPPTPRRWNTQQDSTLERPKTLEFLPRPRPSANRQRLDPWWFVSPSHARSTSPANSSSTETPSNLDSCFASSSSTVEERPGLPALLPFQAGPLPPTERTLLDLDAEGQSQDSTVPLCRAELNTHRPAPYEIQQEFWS
T16 sequence (P29597 whole entry): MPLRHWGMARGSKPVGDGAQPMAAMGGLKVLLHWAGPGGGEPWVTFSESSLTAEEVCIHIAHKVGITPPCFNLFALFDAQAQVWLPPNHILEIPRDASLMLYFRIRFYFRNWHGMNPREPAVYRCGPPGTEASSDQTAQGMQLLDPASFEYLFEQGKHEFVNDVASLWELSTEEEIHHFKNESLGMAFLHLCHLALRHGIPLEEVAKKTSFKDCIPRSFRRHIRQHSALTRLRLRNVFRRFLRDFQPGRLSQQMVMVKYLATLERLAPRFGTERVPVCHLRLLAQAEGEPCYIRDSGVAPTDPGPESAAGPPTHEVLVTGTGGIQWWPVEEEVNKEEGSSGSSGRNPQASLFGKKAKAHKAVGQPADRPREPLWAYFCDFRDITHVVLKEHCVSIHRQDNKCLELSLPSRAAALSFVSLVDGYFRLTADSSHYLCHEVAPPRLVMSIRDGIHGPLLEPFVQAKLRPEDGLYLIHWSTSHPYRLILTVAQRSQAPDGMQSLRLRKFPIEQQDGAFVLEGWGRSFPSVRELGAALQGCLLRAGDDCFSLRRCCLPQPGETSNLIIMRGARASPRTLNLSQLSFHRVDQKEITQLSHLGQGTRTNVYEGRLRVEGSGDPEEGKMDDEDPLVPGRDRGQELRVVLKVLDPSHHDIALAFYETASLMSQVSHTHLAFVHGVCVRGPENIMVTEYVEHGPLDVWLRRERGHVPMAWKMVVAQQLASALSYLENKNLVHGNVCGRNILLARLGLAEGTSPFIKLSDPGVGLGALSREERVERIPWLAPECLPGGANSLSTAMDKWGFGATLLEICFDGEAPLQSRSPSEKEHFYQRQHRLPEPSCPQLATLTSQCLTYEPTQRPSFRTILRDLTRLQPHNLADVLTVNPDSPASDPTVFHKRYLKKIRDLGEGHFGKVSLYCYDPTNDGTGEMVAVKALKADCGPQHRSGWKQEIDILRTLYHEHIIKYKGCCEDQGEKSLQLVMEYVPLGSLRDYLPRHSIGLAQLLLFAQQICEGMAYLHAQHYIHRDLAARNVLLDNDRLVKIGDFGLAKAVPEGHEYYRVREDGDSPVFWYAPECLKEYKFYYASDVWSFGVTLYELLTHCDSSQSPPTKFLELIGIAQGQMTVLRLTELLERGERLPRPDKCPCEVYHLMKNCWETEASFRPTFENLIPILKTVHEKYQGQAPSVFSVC
T8 sequence (Q9P0L2 whole entry): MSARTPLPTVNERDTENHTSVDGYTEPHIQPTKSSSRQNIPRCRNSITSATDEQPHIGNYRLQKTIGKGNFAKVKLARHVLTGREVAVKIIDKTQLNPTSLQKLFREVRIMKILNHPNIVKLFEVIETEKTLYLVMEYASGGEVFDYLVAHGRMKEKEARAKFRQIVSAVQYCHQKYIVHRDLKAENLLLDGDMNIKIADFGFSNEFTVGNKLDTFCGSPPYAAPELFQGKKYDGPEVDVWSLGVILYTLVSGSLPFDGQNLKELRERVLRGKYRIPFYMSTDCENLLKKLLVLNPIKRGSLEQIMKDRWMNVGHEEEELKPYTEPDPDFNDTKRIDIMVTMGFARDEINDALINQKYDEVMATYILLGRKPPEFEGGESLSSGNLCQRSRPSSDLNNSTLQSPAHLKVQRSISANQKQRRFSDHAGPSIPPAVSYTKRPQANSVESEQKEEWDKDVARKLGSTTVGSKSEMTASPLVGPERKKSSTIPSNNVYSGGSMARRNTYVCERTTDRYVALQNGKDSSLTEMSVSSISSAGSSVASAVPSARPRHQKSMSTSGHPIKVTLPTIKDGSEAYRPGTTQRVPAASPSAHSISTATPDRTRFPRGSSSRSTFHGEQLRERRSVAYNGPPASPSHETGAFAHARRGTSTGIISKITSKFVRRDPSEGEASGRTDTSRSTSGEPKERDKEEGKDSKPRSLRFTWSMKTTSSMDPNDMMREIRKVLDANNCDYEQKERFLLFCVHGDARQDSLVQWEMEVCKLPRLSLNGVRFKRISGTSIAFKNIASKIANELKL
T7 sequence (Q08881 whole entry): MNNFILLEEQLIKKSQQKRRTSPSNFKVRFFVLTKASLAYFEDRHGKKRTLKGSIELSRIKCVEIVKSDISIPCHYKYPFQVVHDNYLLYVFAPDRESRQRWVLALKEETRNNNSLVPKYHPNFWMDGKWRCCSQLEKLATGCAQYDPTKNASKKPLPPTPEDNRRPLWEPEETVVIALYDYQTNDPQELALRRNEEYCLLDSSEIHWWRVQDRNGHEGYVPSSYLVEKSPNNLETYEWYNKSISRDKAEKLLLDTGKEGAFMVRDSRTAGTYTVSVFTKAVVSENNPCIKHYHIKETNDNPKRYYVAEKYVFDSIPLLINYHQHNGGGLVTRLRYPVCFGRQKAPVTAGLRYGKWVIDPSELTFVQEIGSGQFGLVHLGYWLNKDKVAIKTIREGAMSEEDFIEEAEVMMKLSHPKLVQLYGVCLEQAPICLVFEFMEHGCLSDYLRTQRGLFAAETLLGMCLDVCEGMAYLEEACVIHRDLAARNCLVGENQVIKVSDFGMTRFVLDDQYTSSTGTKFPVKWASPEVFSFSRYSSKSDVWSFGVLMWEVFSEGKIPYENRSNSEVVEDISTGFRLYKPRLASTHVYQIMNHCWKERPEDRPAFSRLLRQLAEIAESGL

CCS(=O)(=O)N1CCN(c2ccc(Nc3ncc(C(N)=O)c(NC4CC4)n3)cc2)CC1 [cerdulatinib, 4-(cyclopropylamino)-2-(4-(4-(ethylsulfonyl)piperazin-1-yl)phenylamino)pyrimidine-5-carboxamide]
IC50 (ARK5): 4 nM
IC50 (CHK1): 42 nM
IC50 (FLT3): 90 nM
IC50 (FLT4): 51 nM
IC50 (FMS): 5 nM
IC50 (GCK): 18 nM
IC50 (ITK): 194 nM
IC50 (MARK1): 10 nM
IC50 (MLK1): 5 nM
IC50 (MST1): 4 nM
IC50 (MST2): 15 nM
IC50 (PAR1B-a): 13 nM
IC50 (RET): 105 nM
IC50 (RSK2): 20 nM
IC50 (RSK4): 28 nM
IC50 (TYK2): 0.5 nM
IC50 (JAK1): 12 nM
IC50 (JAK1/3): 920 nM
IC50 (Zap70): > 4000 nM
IC50 (PKC): > 4000 nM
IC50 (JAK1/TYK2): 350 nM
inhibition at 40 mg (IL4 signaling): 63 to 78%
dose limiting toxicities (grade 3 pancreatitis and grade 3 fatigue) ([1]; 45 mg BID dose): 2
SS Cmin at which higher grades of adverse events appeared ([1]; PK/AE profile): 1250 to 1500 nM
patients with related treatment emergent AE ≥grade 3: abdominal pain ([1]; n of 43 patients dosed): 2
patients with related treatment emergent AE ≥grade 3: anemia ([1]; n of 43 patients dosed): 3
patients with related treatment emergent AE ≥grade 3: fatigue ([1]; n of 43 patients dosed): 5
patients with related treatment emergent AE ≥grade 3: neutropenia ([1]; n of 43 patients dosed): 3
patients with related treatment emergent AE ≥grade 3: neutrophil count decrease ([1]; n of 43 patients dosed): 2
patients with related treatment emergent AE ≥grade 3: pneumonia ([1]; n of 43 patients dosed): 2
tolerability [1]: well tolerated
tolerability ([1]; listed as Cerdulatinib): well-tolerated
tolerability in dose escalation ([1]; up to 100 mg QD): good tolerability
